*1 amine or outer side, *2 acyl side, *3 side chain or, on linkers, in order; H or OH if unused. Where a SMILES comes first, the peptide text is derived from it. Side-chain parts run from the residue outwards. [ ]: non-standard residue; d: D form. The star is where a group is joined. C18 diacid = O=C(O)CCCCCCCCCCCCCCCCC(=O)*; C16 diacid = O=C(O)CCCCCCCCCCCCCCC(=O)*; γGlu = O=C(O)[C@H](CCC(=O)[*:2])N[*:1]; C14 diacid = O=C(O)CCCCCCCCCCCCC(=O)*; NMeI = CC[C@H](C)[C@H](NC)C(=O)O; αMeL = CC(C)C[C@](C)(N)C(=O)O; Api = NC1(C(=O)O)CCNCC1; AEEA = NCCOCCOCC(=O)O; Aib = CC(C)(N)C(=O)O
Tests used:
CFR1R receptor = target: T1, CFR1R receptor (Homo sapiens, UniProt P34998); experiment: Activity at anti-target CFR1R receptor, cAMP assay in CRF1R-overexpression CHO-K1 cells; format: cell-based; details: 100% = Sauvagine at 100 nM; for EC50: cAMP
T1 construct: host or cells: CHO-K1 (clone 2)
T1 sequence (P34998 24-415): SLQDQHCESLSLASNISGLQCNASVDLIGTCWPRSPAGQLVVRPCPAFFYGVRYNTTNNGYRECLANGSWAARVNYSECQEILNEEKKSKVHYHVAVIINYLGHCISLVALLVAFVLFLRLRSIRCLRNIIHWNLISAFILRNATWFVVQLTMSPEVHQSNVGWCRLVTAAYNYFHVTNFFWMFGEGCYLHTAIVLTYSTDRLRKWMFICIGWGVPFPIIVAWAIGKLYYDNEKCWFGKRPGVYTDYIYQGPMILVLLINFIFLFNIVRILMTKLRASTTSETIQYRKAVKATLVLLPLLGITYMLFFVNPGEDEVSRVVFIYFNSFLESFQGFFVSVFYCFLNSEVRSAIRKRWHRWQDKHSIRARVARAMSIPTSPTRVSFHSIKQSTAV
Summary of the method: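 cAMP readout in CRF1R-overexpressing CHO-K1 cells (clone 2), run as for the TeloHAEC assay at 4000 cells/well final. Cells came from cryopreserved banks. Sauvagine at 100 nM defined 100% activation.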

human CRF2a receptor = target: T2, human CRF2a receptor (Homo sapiens, UniProt Q13324); experiment: Activity at human CRF2a receptor, cAMP functional assay in TeloHEAC cells; format: cell-based; details: TeloHEAC cells stably expressing human CRF2a receptor, relative to urocortin 2 (100 nM = 100%)
T2 construct: expressed in transfected cells; host or cells: TeloHEAC cells
T2 sequence (Q13324 1-411): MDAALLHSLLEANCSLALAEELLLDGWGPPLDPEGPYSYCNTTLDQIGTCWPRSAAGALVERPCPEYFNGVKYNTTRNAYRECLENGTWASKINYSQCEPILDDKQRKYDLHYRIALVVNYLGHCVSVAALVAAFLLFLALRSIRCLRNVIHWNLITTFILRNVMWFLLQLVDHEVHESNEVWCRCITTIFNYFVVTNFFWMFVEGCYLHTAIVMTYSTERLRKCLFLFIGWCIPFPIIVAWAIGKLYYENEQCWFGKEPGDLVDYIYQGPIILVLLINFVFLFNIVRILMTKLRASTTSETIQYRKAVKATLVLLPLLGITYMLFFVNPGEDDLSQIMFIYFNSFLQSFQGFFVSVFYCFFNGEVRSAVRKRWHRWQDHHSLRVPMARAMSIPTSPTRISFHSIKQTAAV
Summary of the method: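 TeloHEAC cells stably expressing human CRF2a (10000 cells/well, suspended in HBSS/20 mM HEPES with 2 mM IBMX) were exposed to compounds for 30 min at 37 °C. cAMP was read as the 665/620 nm fluorescence ratio after 1 h at room temperature. EC50 was derived relative to 100 nM urocortin 2, set as 100%.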

**Q.** Which “Emax (% I)” value (CFR1R receptor) does the source give for CC[C@H](C)[C@H](NC)C(=O)N[C@H](C(=O)N[C@@H](CC(C)C)C(=O)N[C@@H](CO)C(=O)N[C@@H](CC(C)C)C(=O)N[C@@H](CC(=O)O)C(=O)N[C@@H](C(=O)N1CCC[C@H]1C(=O)N[C@H](C(=O)N[C@@H](CCCCN)C(=O)N[C@@H](CC(C)C)C(=O)N[C@@H](CCCCNC(=O)CC[C@H](NC(=O)CCCCCCCCCCCCCCC(=O)O)C(=O)O)C(=O)N[C@@H](CCCCN)C(=O)N[C@H](C(=O)N[C@@H](CC(C)C)C(=O)N[C@@H](CC(C)C)C(=O)N[C@@H](CCC(=O)O)C(=O)N[C@@H](CCC(N)=O)C(=O)N[C@@H](CCC(=O)O)C(=O)N[C@@H](CCCCN)C(=O)N[C@@H](CCC(N)=O)C(=O)N[C@@H](CCCCN)C(=O)NC(C)(C)C(=O)N[C@@H](CCC(N)=O)C(=O)N[C@@H](CCCNC(=N)N)C(=O)N[C@@H](CCC(=O)O)C(=O)N[C@@H](CCC(N)=O)C(=O)N[C@@H](C)C(=O)N[C@@H](CCC(=O)O)C(=O)N[C@H](C(=O)N[C@@H](CC(N)=O)C(=O)NC(C)(C)C(=O)N[C@@H](CCC(N)=O)C(=O)N[C@H](C(=O)N[C@@H](CC(C)C)C(=O)N[C@@H](C)C(=O)N[C@@H](CCC(N)=O)C(=O)N[C@H](C(N)=O)C(C)C)[C@@H](C)CC)[C@@H](C)O)[C@@H](C)CC)[C@@H](C)CC)C(C)C)C(C)C [compound 75] (H-[NMeI]VLSLD[dV]PIKLK([γGlu-C16 diacid])KILLEQEKQK[Aib]QREQAETN[Aib]QILAQV-NH2) here?
**A.** The value was 3 % I.

**Q.** What about the EC50 (CFR1R receptor) of the same compound?
**A.** The EC50 was over 0.25 µM.

**Q.** What about the EC50 (human CRF2a receptor) of the same compound?
**A.** The EC50 was 0.00019 µM.

**Q.** With CC[C@H](C)[C@H](NC)C(=O)N[C@H](C(=O)N[C@@H](CC(C)C)C(=O)N[C@@H](CO)C(=O)N[C@@H](CC(C)C)C(=O)N[C@@H](CC(=O)O)C(=O)N[C@@H](C(=O)N1CCC[C@H]1C(=O)N[C@H](C(=O)N[C@@H](CCCCN)C(=O)N[C@@](C)(CC(C)C)C(=O)N[C@@H](CCCCNC(=O)CC[C@H](NC(=O)CCCCCCCCCCCCCCC(=O)O)C(=O)O)C(=O)N[C@@H](CCCCN)C(=O)N[C@H](C(=O)N[C@@H](CC(C)C)C(=O)N[C@@H](CC(C)C)C(=O)N[C@@H](CCC(=O)O)C(=O)N[C@@H](CCC(N)=O)C(=O)N[C@@H](CCC(=O)O)C(=O)N[C@@H](CCCCN)C(=O)N[C@@H](CCC(N)=O)C(=O)N[C@@H](CCCCN)C(=O)N[C@@H](CCCCN)C(=O)N[C@@H](CCC(N)=O)C(=O)N[C@@H](CCCNC(=N)N)C(=O)N[C@@H](CCC(=O)O)C(=O)N[C@@H](CCC(N)=O)C(=O)N[C@@H](C)C(=O)N[C@@H](CCC(=O)O)C(=O)N[C@H](C(=O)N[C@@H](CC(N)=O)C(=O)N[C@H](C(=O)N[C@@H](CCC(N)=O)C(=O)N[C@H](C(=O)N[C@@H](CC(C)C)C(=O)N[C@@H](C)C(=O)N[C@@H](CCC(N)=O)C(=O)N[C@H](C(N)=O)C(C)C)[C@@H](C)CC)C(C)C)[C@@H](C)O)[C@@H](C)CC)[C@@H](C)CC)C(C)C)C(C)C [compound 67] (H-[NMeI]VLSLD[dV]PIK[αMeL]K([γGlu-C16 diacid])KILLEQEKQKKQREQAETNVQILAQV-NH2) as the compound, how does the “Emax (% I)” value (CFR1R receptor) read?
**A.** Its value is 8 % I.

**Q.** What about the EC50 (CFR1R receptor) of the same compound?
**A.** Its EC50 is over 0.25 µM.

**Q.** And the EC50 (human CRF2a receptor)?
**A.** Its EC50 is 0.00034 µM.

**Q.** Which results are given for CC[C@H](C)[C@H](NC(C)=O)C(=O)N[C@H](C(=O)N[C@@H](CC(C)C)C(=O)N[C@@H](CO)C(=O)N[C@@H](CC(C)C)C(=O)N[C@@H](CC(=O)O)C(=O)N[C@@H](C(=O)N1CCC[C@H]1C(=O)N[C@H](C(=O)N[C@@H](CCCCN)C(=O)N[C@@H](CC(C)C)C(=O)N[C@@H](CCCCNC(=O)COCCOCCNC(=O)COCCOCCNC(=O)CC[C@H](NC(=O)CC[C@H](NC(=O)CCCCCCCCCCCCC(=O)O)C(=O)O)C(=O)O)C(=O)N[C@@H](CCCCN)C(=O)N[C@H](C(=O)N[C@@H](CC(C)C)C(=O)N[C@@H](CC(C)C)C(=O)N[C@@H](CCC(=O)O)C(=O)N[C@@H](CCC(N)=O)C(=O)N[C@@H](CCC(=O)O)C(=O)N[C@@H](CCCCN)C(=O)N[C@@H](CCC(N)=O)C(=O)N[C@@H](CCCCN)C(=O)N[C@@H](CCCCN)C(=O)N[C@@H](CCC(N)=O)C(=O)N[C@@H](CCCNC(=N)N)C(=O)N[C@@H](CCC(=O)O)C(=O)N[C@@H](CCC(N)=O)C(=O)N[C@@H](C)C(=O)N[C@@H](CCC(=O)O)C(=O)N[C@H](C(=O)N[C@@H](CC(N)=O)C(=O)NC1(C(=O)N[C@@H](CCC(N)=O)C(=O)N[C@H](C(=O)N[C@@H](CC(C)C)C(=O)N[C@@H](C)C(=O)N[C@@H](CCC(N)=O)C(=O)N[C@H](C(N)=O)C(C)C)[C@@H](C)CC)CCNCC1)[C@@H](C)O)[C@@H](C)CC)[C@@H](C)CC)C(C)C)C(C)C [compound 175] (Ac-IVLSLD[dV]PIKLK([AEEA-AEEA-γGlu-γGlu-C14 diacid])KILLEQEKQKKQREQAETN[Api]QILAQV-NH2)?
**A.** Emax (% I) (CFR1R receptor): 5 % I; EC50 (CFR1R receptor): > 0.25 µM; EC50 (human CRF2a receptor): 0.0189 µM

**Q.** Which “Emax (% I)” value (CFR1R receptor) does the source give for CC[C@H](C)[C@H](NC(C)=O)C(=O)N[C@H](C(=O)N[C@@H](CC(C)C)C(=O)N[C@@H](CO)C(=O)N[C@@H](CC(C)C)C(=O)N[C@@H](CC(=O)O)C(=O)N[C@H](C(=O)N1CCC[C@H]1C(=O)N[C@H](C(=O)N[C@@H](CCCCN)C(=O)N[C@@H](CC(C)C)C(=O)N[C@@H](CCCCNC(=O)COCCOCCNC(=O)COCCOCCNC(=O)CC[C@H](NC(=O)CCCCCCCCCCCCCCCCC(=O)O)C(=O)O)C(=O)N[C@@H](CCCCN)C(=O)N[C@H](C(=O)N[C@@H](CC(C)C)C(=O)N[C@@H](CC(C)C)C(=O)N[C@@H](CCC(=O)O)C(=O)N[C@@H](CCC(N)=O)C(=O)N[C@@H](CCC(=O)O)C(=O)N[C@@H](CCCCN)C(=O)N[C@@H](CCC(N)=O)C(=O)N[C@@H](CCCCN)C(=O)N[C@@H](CCCCN)C(=O)N[C@@H](CCC(N)=O)C(=O)N[C@@H](CCCNC(=N)N)C(=O)N[C@@H](CCC(=O)O)C(=O)N[C@@H](CCC(N)=O)C(=O)N[C@@H](C)C(=O)N[C@@H](CCC(=O)O)C(=O)N[C@H](C(=O)N[C@@H](CC(N)=O)C(=O)N[C@H](C(=O)N[C@@H](CCC(N)=O)C(=O)N[C@H](C(=O)N[C@@H](CC(C)C)C(=O)N[C@@H](C)C(=O)N[C@@H](CCC(N)=O)C(=O)N[C@H](C(N)=O)C(C)C)[C@@H](C)CC)C(C)C)[C@@H](C)O)[C@@H](C)CC)[C@@H](C)CC)C(C)C)C(C)C [compound 102] (Ac-IVLSLDVPIKLK([AEEA-AEEA-γGlu-C18 diacid])KILLEQEKQKKQREQAETNVQILAQV-NH2) here?
**A.** The value was −5 % I.

**Q.** And the EC50 (CFR1R receptor)?
**A.** The EC50 was over 0.25 µM.

**Q.** What about the EC50 (human CRF2a receptor) of the same compound?
**A.** Its EC50 is 0.0176 µM.

**Q.** What does the source list for CC[C@H](C)[C@H](NC)C(=O)N[C@H](C(=O)N[C@@H](CC(C)C)C(=O)N[C@@H](CO)C(=O)N[C@@H](CC(C)C)C(=O)N[C@@H](CC(=O)O)C(=O)N[C@@H](C(=O)N1CCC[C@H]1C(=O)N[C@H](C(=O)N[C@@H](CCCCN)C(=O)N[C@@H](CC(C)C)C(=O)N[C@@H](CCCCNC(=O)CC[C@H](NC(=O)CCCCCCCCCCCCCCC(=O)O)C(=O)O)C(=O)N[C@@H](CCCCN)C(=O)N[C@H](C(=O)N[C@@H](CC(C)C)C(=O)N[C@@H](CC(C)C)C(=O)N[C@@H](CCC(=O)O)C(=O)N[C@@H](CCC(N)=O)C(=O)N[C@@H](CCC(=O)O)C(=O)N[C@@H](CCCCN)C(=O)N[C@@H](CCC(N)=O)C(=O)N[C@@H](CCCCN)C(=O)N[C@@H](CCCCN)C(=O)N[C@@H](CCC(N)=O)C(=O)N[C@@H](CCCNC(=N)N)C(=O)N[C@@H](CCC(=O)O)C(=O)N[C@@H](CCC(N)=O)C(=O)N[C@@H](C)C(=O)N[C@@H](CCC(=O)O)C(=O)N[C@H](C(=O)N[C@@H](CC(N)=O)C(=O)N[C@H](C(=O)N[C@@H](CCC(N)=O)C(=O)N[C@H](C(=O)N[C@@H](CC(C)C)C(=O)N[C@@H](C)C(=O)N[C@@H](CCC(N)=O)C(=O)N[C@H](C(N)=O)C(C)C)[C@@H](C)CC)C(C)C)[C@@H](C)O)[C@@H](C)CC)[C@@H](C)CC)C(C)C)C(C)C [compound 66] (H-[NMeI]VLSLD[dV]PIKLK([γGlu-C16 diacid])KILLEQEKQKKQREQAETNVQILAQV-NH2)?
**A.** Emax (% I) (CFR1R receptor): 4 % I; EC50 (CFR1R receptor): > 0.25 µM; EC50 (human CRF2a receptor): 0.00105 µM
